Experimental data as given in PMC2794939 (Biochemistry, 2009).

System: influenza virus A/M2-V27A/L38F
Type: cell-based, Influenza A/Udorn/72 virus (recombinant mutant)

Row | Structure (SMILES) | Plaque count [plaques/well] | effect on plaque formation (count and size)
1 | NC12CC3CC(CC(C3)C1)C2 [Amantadine, amantadine] | 82 | failed to inhibit plaque formation
2 | C1CCC2(CC1)CCN(C1=NCCN1)CC2 [BL-1743, 2-[3-azaspiro([5],[5])undecanol]-2-imidazoline] | 86 | failed to inhibit plaque formation
3 | NC1CCC2(CCCCC2)CC1 [Compound 8, spiro[5.5]undecan-3-amine] | 37 | reduced
